Source: patent US8877738B2, “Antipathogenic peptides” (priority 2009, dated 2014)
Values after ≈ are worked out from the molar mass of the structure shown. Ends that are not written are not given here.

How the values were obtained:
HCMV VR1814 = settings: HUVECs, M.O.I. 1, 6 days p.i.
Experimental: (§1) FIGS. 4A and 4B. […] HUVECs were infected with the endotheliotropic and clinical HCMV isolate VR1814 (FIG. 4B) at a M.O.I of 1. The extent of AD169 or AU replication was then assessed by titrating the infectivity of supernatants of HELF suspensions by standard plaque assay. The extent of VR1814 replication was measured by titrating the infectivity of supernatants of cell suspensions by the indirect immunoperoxidase staining procedure on HUVECs using a monoclonal antibody (mAb) reactive to the HCMV IE proteins. Plaques were microscopically counted, and the mean plaque counts for each peptide concentration were expressed as a percentage of the mean count of the controls. The number of plaques was plotted as a function of drug concentration, and the concentration producing a 50% reduction in plaque formation (IC50) was determined.
The cells and supernatants from the antiviral assay were then harvested and disrupted by sonication.

HPV-16 PsV = settings: HPV-16-SEAP PsV preincubated with peptide, 293TT cells, 72 h post-infection
Description: HPV-16 PsV were produced according to previously described methods (Buck et al., 2005). Briefly, 293TT cells were transfected with the plasmid p16sheLL expressing the papillomavirus major and minor capsid proteins (L1 and L2) together with a reporter plasmid expressing the secreted alkaline phosphatase (SEAP) or the green fluorescence protein (GFP) named pYSEAP or pfwB respectively. Capsids were allowed to mature overnight in cell lysate; the clarified supernatant was then loaded on top of a 27-33-39% Optiprep (Sigma-Aldrich, St. Louis, Mo., USA) density gradient at room temperature for 4 h. […] The L1 protein content of PsV stocks was determined by comparison with bovine serum albumin standards in Coomassie-stained SDS-PAGE gels.
For the Secreted Embryonic Alkaline Phosphate (SEAP)-based assays 293TT cells were preplated 3-4 h in advance in 96-well tissue culture-treated flat bottom plates at a density of 30,000 cells/well in 100 μl neutralization buffer (DMEM without phenol red, 10% heat-inactivated FBS, 1% glutamate, 1% nonessential amino acids, 1% penicillin-streptomycin-fungizone, and 10 mM HEPES). […] The SEAP content in the clarified supernatant was determined using a Great ESCAPE SEAP Chemiluminescence Kit (BD Clontech, Mountain View, Calif., USA) as directed by the manufacturer. […]

[1] = tested on: HCMV clinical isolate AL1; settings: HELFs, M.O.I. 1, 6 days p.i.
Experimental: as §1
(§2) After 1 hour, they were infected with HCMV AD169 or HCMV AL1 at a M.O.I. of 1 PFU/cell. […] The cells and supernatants from the antiviral assay were then harvested and disrupted by sonication. The extent of virus replication was assessed by titrating the infectivity of supernatants of cell suspensions by standard plaque assay on HELFs.

[2] = tested on: HCMV laboratory strain AD169; settings: HELFs, M.O.I. 1, treated 1 h before and during infection, 6 days p.i.
Experimental: as §1, §2

in vitro = settings: human, 293TT cells
Experimental: The 293TT cell line derived from human embryonal kidney cells transformed with the SV40 large T antigen was cultured in Dulbecco's modified Eagle's medium (DMEM) (Gibco/BRL, Gaithersburg, Md., USA) supplemented with heat-inactivated 10% bovine serum (Gibco/BRL), Glutamax-I (Invitrogen, Carlsbad, Calif., USA) and nonessential aminoacids. This cell line allows high levels of protein to be expressed from vectors containing the SV40 origin due to overreplication of the expression plasmid (Buck et al., 2004).
Cells were seeded at a density of 5×10^4/well in 24-well plates; the next day they were treated with serially diluted peptides to generate dose-response curves. Forty-eight or 72 h after treatment, cell viability was determined by the 3-(4,5-dimethylthiazol-2-yl)-2,5-diphenyltetrazolium bromide (MTT) method; 50% cytotoxic concentration (CC50) values were determined using Prism.

HSV-2 = HSV-2 attachment (adsorption) assay on Vero cells; format: cell-based; settings: compound present during adsorption, 3 h at 4° C., 200 PFU; plaques after 48 h
Experimental: (§3) FIG. 3. The dendrimeric peptides SB105 and SB105-A10 inhibit HSV-1 and HSV-2 attachment to Vero cells. Pre-chilled Vero cells were incubated at 4° C. with different concentrations of SB105, SB105-A10, SB104 or heparin and with 200 PFU of HSV-1 or HSV-2. Following virus adsorption (3 h at 4° C.), cells were then washed with cold PBS three times to remove compound and unadsorbed viruses, overlaid with medium containing 1.2% methylcellulose and incubated at 37° C. for 48 h. Viral plaques were then stained and counted, and the mean plaque counts for each peptide concentration expressed as a percentage of the mean count of the controls. The data shown represent means±SD of three independent experiments (error bars).
(§4) Following virus adsorption (3 h at 4° C., a condition that is known to allow virus adsorption only), cells were then washed with cold PBS three times to remove compound and unadsorbed viruses, overlaid with medium containing 1.2% methylcellulose and incubated at 37° C. Forty eight hours later, plates were fixed and stained with crystal violet and the viral plaques counted.

HCMV AD169 = test: HCMV attachment (adsorption) assay on HELF cells; format: cell-based; settings: compound present during adsorption, 3 h at 4° C., 200 PFU AD169; plaques after 6 days
Experimental: FIG. 6. HCMV adsorption to target cells is inhibited by SB105 and SB105-A10 dendrimeric peptides. Pre-chilled HELF cells were incubated at 4° C. with different concentrations of SB105, SB105-A10, SB104 or heparin and with 200 PFU of HCMV AD169. Following virus adsorption (3 h at 4° C.), cells were washed with cold PBS three times to remove compound and unadsorbed viruses, overlaid with medium containing 1.2% methylcellulose and incubated at 37° C. for 6 days. Viral plaques were then stained and counted and the mean plaque counts for each peptide concentration were expressed as a percentage of the mean count of the controls. The data shown represent means±SD of three independent experiments (error bars).
After 24 h, they were prechilled to 4° C. and incubated in duplicate at 4° C. with different concentrations of SB105, SB105_A10, SB104 (as negative control for inhibition of viral replication) or heparin (as a positive control for inhibition of viral adsorption) and with 200 PFU of HCMV AD169. Following virus adsorption (3 h at 4° C., a condition that is known to allow virus adsorption only), cells were then washed with cold PBS three times to remove compound and unadsorbed viruses, overlaid with medium containing 1.2% methylcellulose and incubated at 37° C. for 6 days. Plates were then fixed and stained with crystal violet and the viral plaques counted.

HIV-1IIIb = HIV-1IIIb replication in C8166 cells (RNA load by real time RT-PCR, p24 ELISA); format: cell-based; settings: day 7 post-infection, 0.1-20 μg/ml
Description: FIG. 8: Quantitative real time RT-PCR analysis of HIV-1 RNA load in HIV-1 infected C8166 cell culture supernatants at day 7 post infection. […] The data are reported as means±SD of three independent experiments performed in duplicate.
FIG. 9: ELISA HIV-1 p24 protein analysis in HIV-1 infected C8166 cell culture supernatants at day 7 post infection. […] The data are reported as means±SD of three independent experiments performed in duplicate.
HIV-1 RNA viral load and HIV-1 gag p24 content were determined at day 7 post-infection in the culture supernatants in three independent experiments performed in duplicate. HIV-1 RNA was extracted by Roche high pure viral nucleic acid kit (Roche, Mannheim, Germany) from 200 μl of culture supernatants and then RNA load was assessed by quantitative real time RT-PCR as previously described (Gibellini et al., 2004). In parallel, HIV-1 gag p24 protein amount was determined by ELISA HIV-1 p24 antigen kit (Biomerieux Marcy L'Etoile, France).

HSV-1 = HSV-1 attachment (adsorption) assay on Vero cells; format: cell-based; settings: compound present during adsorption, 3 h at 4° C., 200 PFU; plaques after 48 h
Experimental: as §3, §4

Row | Compound | IC50, endotheliotropic HCMV VR1814 replication (HCMV VR1814) | IC50 against HPV-16 PsV (HPV-16 PsV) | IC50, HCMV clinical isolate AL1 replication [1] | 50% inhibition of HCMV AD169 replication (IC50) [2] | CC50 (in vitro) | effect on HSV-2 attachment to Vero cells (HSV-2) | effect on HCMV attachment (adsorption) to HELF cells (HCMV AD169) | HIV-1 gag p24 content in culture supernatants (HIV-1IIIb; ELISA) | HIV-1 RNA load in culture supernatants (HIV-1IIIb; real time RT-PCR) | effect on HSV-1 attachment to Vero cells (HSV-1)
1 | CC[C@H](C)[C@H](NC(=O)[C@H](CCCNC(=N)N)NC(=O)[C@@H](NC(=O)[C@H](CCCNC(=N)N)NC(=O)[C@H](CC(C)C)NC(=O)[C@H](CO)NC(=O)[C@H](C)N)C(C)C)C(=O)N[C@@H](CCCCN)C(=O)N[C@@H](CCCCN)C(=O)N[C@@H](CCC(N)=O)C(=O)NCCCC[C@H](NC(=O)[C@H](CCC(N)=O)NC(=O)[C@H](CCCCN)NC(=O)[C@H](CCCCN)NC(=O)[C@@H](NC(=O)[C@H](CCCNC(=N)N)NC(=O)[C@@H](NC(=O)[C@H](CCCNC(=N)N)NC(=O)[C@H](CC(C)C)NC(=O)[C@H](CO)NC(=O)[C@H](C)N)C(C)C)[C@@H](C)CC)C(=O)NCCCC[C@H](NC(=O)[C@H](CCCCNC(=O)[C@H](CCC(N)=O)NC(=O)[C@H](CCCCN)NC(=O)[C@H](CCCCN)NC(=O)[C@@H](NC(=O)[C@H](CCCNC(=N)N)NC(=O)[C@@H](NC(=O)[C@H](CCCNC(=N)N)NC(=O)[C@H](CC(C)C)NC(=O)[C@H](CO)NC(=O)[C@H](C)N)C(C)C)[C@@H](C)CC)NC(=O)[C@H](CCC(N)=O)NC(=O)[C@H](CCCCN)NC(=O)[C@H](CCCCN)NC(=O)[C@@H](NC(=O)[C@H](CCCNC(=N)N)NC(=O)[C@@H](NC(=O)[C@H](CCCNC(=N)N)NC(=O)[C@H](CC(C)C)NC(=O)[C@H](CO)NC(=O)[C@H](C)N)C(C)C)[C@@H](C)CC)C(=O)NCCC(N)=O [SB105, (ASLRVRIKKQ)4-Lys2-Lys-β-Ala] | 1.1 µg/mL (≈ 0.212 µM) | 11.6 µg/mL (≈ 2.23 µM) | 1.2 µg/mL (≈ 0.231 µM) | 1.17 µg/mL | > 100 µg/mL | – | – | – | – | –
2 | (NKKIRVRL)4-Lys2-Lys-β-Ala (also: tetramer on Lys2-Lys-β-Ala core) [SB104] | – | – | – | – | – | did not significantly reduce | did not significantly reduce | did not induce significant inhibition | did not induce significant inhibition | did not significantly reduce
3 | heparin | – | – | – | – | – | prevented virus adsorption | prevented virus adsorption | – | – | prevented virus adsorption
